In the assay the target is T1, human RXFP1 (Homo sapiens, UniProt Q9HBX9).
T1 construct: expressed in transfected cells
T1 sequence (Q9HBX9 1-757): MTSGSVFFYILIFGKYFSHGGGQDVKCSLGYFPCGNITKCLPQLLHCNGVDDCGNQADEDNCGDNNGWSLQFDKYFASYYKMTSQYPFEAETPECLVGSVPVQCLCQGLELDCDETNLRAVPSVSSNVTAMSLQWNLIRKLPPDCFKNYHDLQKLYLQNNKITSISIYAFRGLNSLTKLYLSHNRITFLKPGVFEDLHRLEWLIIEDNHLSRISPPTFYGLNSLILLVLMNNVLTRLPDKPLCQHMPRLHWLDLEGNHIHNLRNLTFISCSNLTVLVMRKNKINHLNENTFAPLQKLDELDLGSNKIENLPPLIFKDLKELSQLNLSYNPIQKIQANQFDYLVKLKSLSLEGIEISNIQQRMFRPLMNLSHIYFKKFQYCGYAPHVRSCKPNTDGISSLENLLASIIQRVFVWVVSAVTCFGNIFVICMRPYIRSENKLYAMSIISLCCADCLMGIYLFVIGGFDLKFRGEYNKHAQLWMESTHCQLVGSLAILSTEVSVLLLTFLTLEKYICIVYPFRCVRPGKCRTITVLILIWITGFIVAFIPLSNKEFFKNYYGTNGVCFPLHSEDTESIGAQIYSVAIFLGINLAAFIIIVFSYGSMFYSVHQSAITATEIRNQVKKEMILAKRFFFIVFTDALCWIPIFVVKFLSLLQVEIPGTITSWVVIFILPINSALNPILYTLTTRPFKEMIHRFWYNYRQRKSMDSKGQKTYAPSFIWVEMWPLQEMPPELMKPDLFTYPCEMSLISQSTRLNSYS
In words: hRXFP1 HEK293 cAMP assay (HTRF). The conditions noted are these: HEK293 cells stably expressing human RXFP1, 30 min at room temperature. Format: cell-based. A digest of the protocol:
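Intracellular cAMP was read by HTRF, with potency fitted to a 4-parameter logistic curve. Compound exposure (0.010 nM–50 μM final, 2% DMSO) lasted 30 min at room temperature. Cells were hRXFP1-HEK293 at 1500 per well in IBMX-containing (0.5 mM) HEPES-buffered HBSS.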

Each structure is given as a SMILES string.

`COc1ccc(S(=O)(=O)N2CCN3C(=O)OCC3C2)cc1C(=O)N[C@H]1[C@@H](C(=O)Nc2ccc(F)c(C(F)(F)F)c2)[C@H]2CC[C@@H]1/C2=C\C(F)(F)F` (stereo partly drawn) [Example 220, (1R,2S,3R,4R,7Z)-N-[4-fluoro-3-(trifluoromethyl)phenyl]-3-[2-methoxy-5-({3-oxo-hexahydro-1H-[1,3]oxazolo[3,4-a]piperazin-7-yl}sulfonyl)benzamido]-7-(2,2,2-trifluoroethylidene) bicyclo[2.2.1] heptane-2-carboxamide] registered an EC50 of 0.459 µM. The same measure for `COc1ccc(COCC2CC(F)(F)C2)cc1C(=O)N[C@H]1[C@@H](C(=O)Nc2ccc(F)c(C(F)(F)F)c2)[C@H]2CC[C@@H]1/C2=C\C1CC1` [Example 283, (1R,2S,3R,4R,7Z)-7-(cyclopropyl-methylidene)-3-(5-{[(3,3-difluorocyclobutyl)methoxy]methyl}-2-methoxybenzamido)-N-[4-fluoro-3-(trifluoromethyl)phenyl] bicyclo[2.2.1] heptane-2-carboxamide]: 0.11 µM.

For the compound `COc1ccc(/C=C/C(=O)N2CC3CCC(C2)O3)cc1C(=O)N[C@H]1[C@@H](C(=O)Nc2ccc(F)c(C(F)(F)F)c2)[C@H]2CC[C@@H]1/C2=C\C(F)(F)F` [Example 311, (1R,2S,3R,4R,7Z)-N-[4-fluoro-3-(trifluoromethyl)phenyl]-3-{2-methoxy-5-[(1E)-3-{8-oxa-3-azabicyclo[3.2.1]octan-3-yl}-3-oxoprop-1-en-1-yl]benzamido}-7-(2,2,2-trifluoroethylidene) bicyclo[2.2.1]heptane-2-carboxamide], the 50% effective concentration (EC50) was 0.0909 µM. To `CCCC/C=C1\C2CCC1[C@H](C(=O)Nc1ccc(F)c(C(F)(F)F)c1)[C@@H]2NC(=O)c1cc(CCC(C)(C)O)ccc1OC` (stereo partly drawn) [Example 89, (2S,3R,7Z)-N-[4-fluoro-3-(trifluoromethyl)phe-nyl]-3-[5-(3-hydroxy-3-methylbutyl)-2-methoxybenzamido]-7-pentylidenebicyclo [2.2.1]heptane-2-carboxamide] belongs 0.045 µM; to `COc1ccc(/C=C/C(=O)N2CC3CCC(C2)O3)cc1C(=O)N[C@H]1[C@@H](C(=O)Nc2ccc(F)c(C(F)(F)F)c2)[C@H]2CC[C@@H]1/C2=C\C1CC1` [Example 308, (1R,2S,3R,4R,7Z)-7-(cyclopropylmethylidene)-N-[4-fluoro-3-(trifluoromethyl)phenyl]-3-{2-methoxy-5-[(1E)-3-{8-oxa-3-azabicyclo[3.2.1]octan-3-yl}-3-oxoprop-1-en-1-yl]benzamido} bicyclo[2.2.1] heptane-2-carboxamide], 0.0137 µM.

`COc1cc(COC2(CO)CC2)ccc1C(=O)N[C@H]1[C@@H](C(=O)Nc2ccc(F)c(C(F)(F)F)c2)[C@H]2CC[C@@H]1/C2=C\C1CC1` [Example 14, (1R,2S,3R,4R,Z)-7-(cyclopropylmethylene)-N-(4-fluoro-3-(trifluoromethyl)phenyl)-3-(4-((1-(hydroxymethyl)cyclopropoxy)methyl)-2-methoxybenzamido) bicyclo[2.2.1]heptane-2-carboxamide] yielded a concentration giving a half-maximal response (EC50) of 0.013 µM. To `COc1ccc(CC2CCOCC2)cc1C(=O)NC1C2CCC(/C2=C/C(F)(F)F)[C@@H]1C(=O)Nc1ccc(F)c(C(F)(F)F)c1` (stereo partly shown) [Example 178, (7Z)-N-[4-fluoro-3-(trifluoromethyl)phe-nyl]-3-{2-methoxy-5-[(oxan-4-yl)methyl]benzamido}-7-(2,2,2-trifluoroethylidene)bi-cyclo[2.2.1]heptane-2-carboxamide] belongs 0.355 µM; to `COc1ccc(/C=C/C(=O)N2CCC(O)CC2)cc1C(=O)N[C@@H]1C2CCC(/C2=C/C(F)(F)F)[C@@H]1C(=O)Nc1ccc(F)c(C(F)(F)F)c1` (stereo partly drawn) [Example 125, (2S,3R,7Z)-N-[4-fluoro-3-(trifluoromethyl)phe-nyl]-3-{5-[(1E)-3-(4-hydroxypiperidin-1-yl)-3-oxoprop-1-en-1-yl]-2-methoxybenzamido}-7-(2,2,2-trifluoroethylidene)bi-cyclo[2.2.1]heptane-2-carboxamide], 0.013 µM. To `COc1ccc(C(=O)NCC(C)(C)O)cc1C(=O)N[C@H]1[C@@H](C(=O)Nc2ccc(F)c(C(F)(F)F)c2)[C@H]2CC[C@@H]1/C2=C\C1CC1` [Example 240, N3-[(1R,2R,3S,4R,7Z)-7-(cyclopropyl-methylidene)-3-{[4-fluoro-3-(trifluoromethyl)phenyl]carbamoyl}bicyclo[2.2.1]heptan-2-yl]-N1-(2-hydroxy-2-methylpropyl)-4-methoxybenzene-1,3-dicarboxamide] belongs 0.0531 µM; to `COc1ccc(CCCOc2ccncc2)cc1C(=O)NC1C2CCC(/C2=C/C(F)(F)F)[C@@H]1C(=O)Nc1ccc(F)c(C(F)(F)F)c1` (stereo partly shown) [Example 104], 0.988 µM; to `COc1ccc(C2CCCC(NC(=O)C3CCOCC3)C2)cc1C(=O)N[C@@H]1C2CCC(/C2=C/C(F)(F)F)[C@@H]1C(=O)Nc1ccc(F)c(C(F)(F)F)c1` (single isomer, unassigned) [Example 48], 0.833 µM.

Regarding `COc1ccc(S(=O)(=O)N2CCOC[C@@H]2CO)cc1C(=O)N[C@H]1[C@@H](C(=O)Nc2ccc(F)c(C(F)(F)F)c2)[C@H]2CC[C@@H]1/C2=C\C(F)(F)F` [Example 213, (1R,2S,3R,4R,7Z)-N-[4-fluoro-3-(trifluoromethyl)phenyl]-3-(5-{[(3S)-3-(hydroxymethyl)morpholin-4-yl]sulfonyl}-2-methoxybenzamido)-7-(2,2,2-trifluoroethylidene) bicyclo[2.2.1] heptane-2-carboxamide], the EC50 is 0.331 µM. The same measure for `COc1ccc(C#CCCO)cc1C(=O)N[C@@H]1C2CCC(/C2=C/C(F)(F)F)[C@@H]1C(=O)Nc1ccc(F)c(C(F)(F)F)c1` (stereo partly drawn) [Example 76, (2S,3R,7Z)-N-[4-fluoro-3-(trifluoromethyl)phe-nyl]-3-[5-(4-hydroxybut-1-yn-1-yl)-2-methoxybenzamido]-7-(2,2,2-trifluoroethylidene)bi-cyclo[2.2.1]heptane-2-carboxamide]: 0.066 µM. The same measure for `COc1ccc(CCCCCCC#N)cc1C(=O)NC1C2CCC(/C2=C/C(F)(F)F)[C@@H]1C(=O)Nc1ccc(F)c(C(F)(F)F)c1` (stereo partly shown) [Example 184, (7Z)-3-[5-(6-cyanohexyl)-2-methoxybenzamido]-N-[4-fluoro-3-(trifluoromethyl)phe-nyl]-7-(2,2,2-trifluoroethylidene)bi-cyclo[2.2.1]heptane-2-carboxamide]: 0.252 µM; for `COc1ccc(/C=C/C(=O)N2CC[C@@H](O)C2)cc1C(=O)N[C@@H]1C2CCC(/C2=C/C(F)(F)F)[C@@H]1C(=O)Nc1ccc(F)c(C(F)(F)F)c1` (stereo partly drawn) [Example 129, (2S,3R,7Z)-N-[4-fluoro-3-(trifluoromethyl)phe-nyl]-3-{5-[(1E)-3-[(3R)-3-hydroxypyrrolidin-1-yl]-3-oxoprop-1-en-1-yl]-2-methoxybenzamido}-7-(2,2,2-trifluoroethylidene)bi-cyclo[2.2.1]heptane-2-carboxamide]: 0.111 µM; for `COc1ccc(S(=O)(=O)N2CCN3C(=O)CCC3C2)cc1C(=O)N[C@H]1[C@@H](C(=O)Nc2ccc(F)c(C(F)(F)F)c2)[C@H]2CC[C@@H]1/C2=C\C1CC1` (stereo partly drawn) [Example 223, (1R,2S,3R,4R,7Z)-7-(cyclopropyl-methylidene)-N-[4-fluoro-3-(trifluoromethyl)phenyl]-3-[2-methoxy-5-({6-oxo-octahydropyrrolo[1,2-a]piperazin-2-yl}sulfonyl)benzamido] bicyclo[2.2.1] heptane-2-carboxamide]: 0.145 µM. For `COc1ccc(C(=O)NCC(C)(C)C)cc1C(=O)N[C@H]1[C@@H](C(=O)Nc2ccc(F)c(C(F)(F)F)c2)[C@H]2CC[C@@H]1/C2=C\C1CC1` [Example 238, N3-[(1R,2R,3S,4R,7Z)-7-(cyclopropyl-methylidene)-3-{[4-fluoro-3-(trifluoromethyl)phenyl]carbamoyl}bicyclo[2.2.1]heptan-2-yl]-N1-(2,2-dimethylpropyl)-4-methoxybenzene-1,3-dicarboxamide], the half-maximal effective concentration (EC50) turned out to be 0.014 µM. To `COc1ccc(CCCO)cc1C(=O)NC1C2CCC(/C2=C/C2CC(F)(F)C2)[C@@H]1C(=O)Nc1ccc(F)c(C(F)(F)F)c1` (stereo partly drawn) [Example 159, (2S,3R,7Z)-7-[(3,3-difluorocyclobutyl)methylidene]-N-[4-fluoro-3-(trifluoromethyl)phe-yl]-3-[5-(3-hydroxypropyl)-2-methoxybenzamideo] bicyclo[2.2.1]heptane-2-carboxamide] belongs 0.043 µM. To `COC(=O)C1CC(c2ccc(OC)c(C(=O)N[C@H]3[C@@H](C(=O)Nc4ccc(F)c(C(F)(F)F)c4)[C@H]4CC[C@@H]3/C4=C\C3CC3)c2)C1` (single isomer, unassigned) [Example 332] belongs 0.112 µM.

Source of the values: patent publication US20250268903A1, “RXFP1 AGONISTS” (BRISTOL-MYERS SQUIBB COMPANY, priority 2021, published 2025).
